# pEC50, pIC50: −log10 of the molar value. Where two headings read alike, the source gives them in different places.
# Key:
# [1] = molecular target: recombinant SARS-CoV-2 Main protease (Mpro) (Severe acute respiratory syndrome coronavirus 2 (2019-nCoV) (SARS-CoV-2), UniProt P0DTD1); test: Cov Mpro Biochemical IC50 Assay; settings: fluorogenic peptide substrate
# SARS-CoV-2-NLuc = test: microbe, parasite or virus in culture; type: cell-based, SARS Coronavirus 2
# [2] = recombinant SARS-CoV-2 Mpro, read-out: MPro IC50
# [3] = Severe acute respiratory syndrome coronavirus, 48 h, read-out: MPro EC50
# [4] = Severe acute respiratory syndrome coronavirus, 48 h; read-out: MPro EC50
Structure (SMILES),"pIC50 [1, 2]",pEC50 (SARS-CoV-2-NLuc; [3]),"pIC50 ([1]; MPro IC50, recombinant SARS-CoV-2 Mpro)",pEC50 (SARS-CoV-2-NLuc; [4])
"Cc1c(C2CCOCC2)cncc1-n1c(=O)[nH]c2cc(-c3ccccc3Cl)sc2c1=O [Example 119, 6-(2-chlorophenyl)-3-(4-methyl-5-(tetrahydro-2H-pyran-4-yl)pyridin-3-yl)thieno[3,2-d]pyrimidine-2,4(1H,3H)-dione]",6.41,5.56,,
"O=c1c2sc(-c3ccccc3Cl)cc2n(CC2CCOCC2)c(=O)n1-c1cncc2ccccc12 [Example 120, 6-(2-chlorophenyl)-3-(isoquinolin-4-yl)-1-((tetrahydro-2H-pyran-4-yl)methyl)thieno[3,2-d]pyrimidine-2,4(1H,3H)-dione]",7.01,6.56,,
"Cc1ccncc1-n1c(=O)[nH]c2cc(-c3ccccc3Cl)ccc2c1=O [Example 121, 7-(2-chlorophenyl)-3-(4-methylpyridin-3-yl)quinazoline-2,4(1H,3H)-dione]",6.15,5.94,,
O=c1[nH]c2cc(-c3ccccc3Cl)ccc2c(=O)n1-c1cccnc1 [Example 122],6.00,5.41,,
O=c1[nH]c2cc(-c3ccccc3Cl)ccc2c(=O)n1-c1cncnc1 [Example 123],< 4.00,4.33,,
CCc1ccncc1-n1c(=O)[nH]c2cc(-c3ccccc3Cl)ccc2c1=O [Example 124],6.02,5.65,,
O=c1[nH]c2cc(-c3ccccc3Cl)ccc2c(=O)n1-c1cnccc1C(F)(F)F [Example 125],4.65,4.76,,
COC(=O)[C@H]1C[C@@H]1c1cncc(-n2c(=O)[nH]c3cc(-c4ccccc4Cl)ccc3c2=O)c1C [Example 126],< 4.30,< 4.30,,
O=c1[nH]c2cc(-c3ccccc3Cl)ccc2c(=O)n1-c1cncc(C2CC2)c1 [Example 127],,,6.11,6.19
O=c1[nH]c2cc(-c3ccccc3Cl)ccc2c(=O)n1-c1cnccc1N1CCOCC1 [Example 128],6.29,,,5.88
O=c1[nH]c2cc(-c3ccccc3Cl)ccc2c(=O)n1-c1cnccc1C1CCOCC1 [Example 129],5.99,5.91,,
"O=c1[nH]c2cc(-c3ccccc3Cl)sc2c(=O)n1-c1cnccc1C1CC1 [Example 130, 6-(2-chlorophenyl)-3-(4-cyclopropylpyridin-3-yl)thieno[3,2-d]pyrimidine-2,4(1H,3H)-dione]",7.14,6.83,,
O=c1[nH]c2cc(-c3ccccc3Cl)sc2c(=O)n1-c1cnnc2ccccc12 [Example 131],7.01,6.20,,
Cc1cncc(-n2c(=O)[nH]c3cc(-c4ccccc4Cl)sc3c2=O)c1C [Example 132],8.04,7.56,,
"O=c1[nH]c2cc(-c3ccccc3Cl)sc2c(=O)n1-c1cncc2cccnc12 [Example 133, 6-(2-chlorophenyl)-3-(1,6-naphthyridin-8-yl)thieno[3,2-d]pyrimidine-2,4(1H,3H)-dione]",7.89,7.56,,
O=c1[nH]c2cc(-c3ccccc3Cl)sc2c(=O)n1-c1cncc2ncccc12 [Example 134],7.20,6.82,,
O=c1[nH]c2cc(-c3ccccc3Cl)sc2c(=O)n1-c1cncc2nccn12 [Example 135],7.29,6.54,,
COC(=O)[C@H]1C[C@@H]1c1cncc(-n2c(=O)[nH]c3cc(-c4ccccc4Cl)sc3c2=O)c1C [Example 136],< 4.30,4.95,,
O=c1[nH]c2cc(-c3ccccc3Cl)sc2c(=O)n1-c1cncc(C2CC2)c1 [Example 137],7.82,7.40,,
O=c1[nH]c2cc(-c3ccccc3Cl)sc2c(=O)n1-c1cnccc1C1CCOCC1 [Example 138],7.79,6.84,,
O=c1[nH]c2cc(-c3ccccc3Cl)sc2c(=O)n1-c1cnccc1N1CCOCC1 [Example 139],6.96,6.23,,
"Cc1c(Cl)cncc1-n1c(=O)[nH]c2cc(-c3ccccc3Cl)ccc2c1=O [Example 140, 3-(5-chloro-4-methylpyridin-3-yl)-7-(2-chlorophenyl)quinazoline-2,4(1H,3H)-dione]",< 4.00,6.37,,
COc1cncc(-n2c(=O)[nH]c3cc(-c4ccccc4Cl)ccc3c2=O)c1C [Example 141],5.18,4.49,,
"O=c1[nH]c2cc(-c3c(Cl)cccc3-c3ccn4ncnc4c3)ccc2c(=O)n1-c1cncc2ccccc12 [Example 142, 7-[2-chloro-6-([1,2,4]triazolo[1,5-a]pyridin-7-yl)phenyl]-3-(4-isoquinolyl)-1H-quinazoline-2,4-dione]",8.06,7.50,,

Structure (SMILES),"pIC50 [1, 2]",pEC50 (SARS-CoV-2-NLuc; [3]),"pIC50 ([1]; MPro IC50, recombinant SARS-CoV-2 Mpro)",pEC50 (SARS-CoV-2-NLuc; [4])
COc1cc(-c2cccc(Cl)c2-c2ccc3c(=O)n(-c4cncc5ccccc45)c(=O)[nH]c3c2)cn2ncnc12 [Example 143],7.97,,,7.10
Cn1cc(-c2cccc(Cl)c2-c2ccc3c(=O)n(-c4cncc5ccccc45)c(=O)[nH]c3c2)cn1 [Example 144],7.02,7.17,,
O=c1[nH]c2cc(-c3c(Cl)cccc3-c3cc(C(F)(F)F)c4ncnn4c3)ccc2c(=O)n1-c1cncc2ccccc12 [Example 145],7.62,,,7.37
Cn1ccc(-c2cccc(Cl)c2-c2ccc3c(=O)n(-c4cncc5ccccc45)c(=O)[nH]c3c2)n1 [Example 146],7.00,7.22,,
O=c1[nH]c2cc(-c3c(Cl)cccc3-c3ccc4nccn4c3)ccc2c(=O)n1-c1cncc2ccccc12 [Example 147],7.96,7.77,,
Cc1nn(C)cc1-c1cccc(Cl)c1-c1ccc2c(=O)n(-c3cncc4ccccc34)c(=O)[nH]c2c1 [Example 148],7.98,7.85,,
"NC(=O)c1ccc(-c2cccc(Cl)c2-c2ccc3c(=O)n(-c4cncc5ccccc45)c(=O)[nH]c3c2)cc1 [Example 149, 4-[3-chloro-2-[3-(4-isoquinolyl)-2,4-dioxo-1H-quinazolin-7-yl]phenyl]benzamide]",7.72,7.40,,
"Cn1cc2ccc(-n3c(=O)n(-c4cncc5ccccc45)c(=O)c4sc(-c5ccccc5Cl)cc43)cc2n1 [Example 152, 6-(2-chlorophenyl)-3-(isoquinolin-4-yl)-1-(2-methyl-2H-indazol-6-yl)thieno[3,2-d]pyrimidine-2,4(1H,3H)-dione]",7.07,6.83,,
"Cn1cnc(Cn2c(=O)n(-c3cncc4ccccc34)c(=O)c3sc(-c4ccccc4Cl)cc32)n1 [Example 153, 6-(2-chlorophenyl)-3-(4-isoquinolyl)-1-[(1-methyl-1,2,4-triazol-3-yl)methyl]thieno[3,2-d]pyrimidine-2,4-dione]",7.73,7.18,,
O=c1c2sc(-c3ccccc3Cl)cc2n(Cc2cccnn2)c(=O)n1-c1cncc2ccccc12 [Example 154],6.91,6.71,,
O=c1c2sc(-c3ccccc3Cl)cc2n(Cc2ccnnc2)c(=O)n1-c1cncc2ccccc12 [Example 155],8.04,6.90,,
O=c1c2sc(-c3ccccc3Cl)cc2n(Cc2cccnc2)c(=O)n1-c1cncc2ccccc12 [Example 156],6.78,6.77,,
O=c1c2sc(-c3ccccc3Cl)cc2n(Cc2ccncc2)c(=O)n1-c1cncc2ccccc12 [Example 157],6.78,6.69,,
"O=c1[nH]c2sc(-c3ccccc3)nc2c(=O)n1-c1cncc2ccccc12 [Example 158, 6-(isoquinolin-4-yl)-2-phenylthiazolo[5,4-d]pyrimidine-5,7(4H,6H)-dione]",6.88,4.72,,
"C#Cc1cccc(Cl)c1-c1ccc2c(=O)n(-c3cncc4ccccc34)c(=O)[nH]c2c1 [Example 159, 7-(2-chloro-6-ethynyl-phenyl)-3-(4-isoquinolyl)-1H-quinazoline-2,4-dione]",6.01,6.48,,
"O=c1[nH]c2cc(-c3c(Cl)cccc3-c3cn(C4CC4)nn3)ccc2c(=O)n1-c1cncc2ccccc12 [Example 160, 7-(2-chloro-6-(1-cyclopropyl-1H-1,2,3-triazol-4-yl)phenyl)-3-(isoquinolin-4-yl)quinazoline-2,4(1H,3H)-dione]",7.76,7.25,,
"O=c1[nH]c2cc(-c3c(Cl)cccc3-c3nc4ccccc4[nH]3)ccc2c(=O)n1-c1cncc2ccccc12 [Example 161, 7-[2-(1H-benzimidazol-2-yl)-6-chloro-phenyl]-3-(4-isoquinolyl)-1H-quinazoline-2,4-dione]",7.57,6.89,,
"O=c1[nH]c2cc(-c3c(F)cccc3Cl)ccc2c(=O)n1-c1cncc2ccccc12 [Example 162, 7-(2-Chloro-6-fluoro-phenyl)-3-(4-isoquinolyl)-1H-quinazoline-2,4-dione]",6.46,6.41,,
"O=c1[nH]c2cc(-c3ccccc3Cl)ncc2c(=O)n1-c1cncc2ccccc12 [Example 163, 7-(2-chlorophenyl)-3-(4-isoquinolyl)-1H-pyrido[4,3-d]pyrimidine-2,4-dione]",6.31,6.03,,
O=c1[nH]c2cc(-c3ccccc3)ncc2c(=O)n1-c1cncc2ccccc12 [Example 164],5.10,4.90,,
Cc1ccccc1-c1cc2[nH]c(=O)n(-c3cncc4ccccc34)c(=O)c2cn1 [Example 165],5.83,5.61,,
"O=c1[nH]c2cc(-c3ncco3)sc2c(=O)n1-c1cncc2ccccc12 [Example 166, 3-(isoquinolin-4-yl)-6-(oxazol-2-yl)thieno[3,2-d]pyrimidine-2,4(1H,3H)-dione]",6.03,5.35,,
"COc1ccc(Cn2c(=O)n(-c3cncc4ccccc34)c(=O)c3sc(-c4cccc5c4CCC5)cc32)cc1 [Example 167, 6-(2,3-dihydro-1H-inden-4-yl)-3-(isoquinolin-4-yl)-1-(4-methoxybenzyl)thieno[3,2-d]pyrimidine-2,4(1H,3H)-dione]",4.30,5.35,,

# Reference: US20240116946A1 (Gilead Sciences, Inc., priority 2022, published 2024)
